Data published in ChEMBL document CHEMBL5257023, “Identification of leads for antiproliferative activity on MDA-MB-435 human breast cancer cells through pharmacophore and CYP1A1-mediated metabolism” (Eur J Med Chem, 2016).

Key:
[1] = tested on: MDA-MB-435; experiment: Anticancer activity against human MDA-MB-435 cells assessed as cell growth at 100 uM incubated for 48 hrs by SRB assay; assay type: functional; conditions: read-out: Activity
[2] = tested on: MDA-MB-468; experiment: Anticancer activity against human MDA-MB-468 cells assessed as cell growth at 100 uM incubated for 48 hrs by SRB assay; assay type: functional; conditions: read-out: Activity
[3] = biological target: T1, CYP1A1 (Homo sapiens, UniProt P04798); experiment: Inhibition of recombinant CYP1A1 (unknown origin) assessed as residual enzyme activity using 7-ethoxyresorufin as substrate at 0.1 uM incubated for 15 mins by resorufin dye based spectrofluorimetry (reference value: 100%); assay type: ADME; conditions: recombinant CYP1A1, probe 7-ethoxyresorufin, read-out: Activity
T1 sequence (P04798 whole entry): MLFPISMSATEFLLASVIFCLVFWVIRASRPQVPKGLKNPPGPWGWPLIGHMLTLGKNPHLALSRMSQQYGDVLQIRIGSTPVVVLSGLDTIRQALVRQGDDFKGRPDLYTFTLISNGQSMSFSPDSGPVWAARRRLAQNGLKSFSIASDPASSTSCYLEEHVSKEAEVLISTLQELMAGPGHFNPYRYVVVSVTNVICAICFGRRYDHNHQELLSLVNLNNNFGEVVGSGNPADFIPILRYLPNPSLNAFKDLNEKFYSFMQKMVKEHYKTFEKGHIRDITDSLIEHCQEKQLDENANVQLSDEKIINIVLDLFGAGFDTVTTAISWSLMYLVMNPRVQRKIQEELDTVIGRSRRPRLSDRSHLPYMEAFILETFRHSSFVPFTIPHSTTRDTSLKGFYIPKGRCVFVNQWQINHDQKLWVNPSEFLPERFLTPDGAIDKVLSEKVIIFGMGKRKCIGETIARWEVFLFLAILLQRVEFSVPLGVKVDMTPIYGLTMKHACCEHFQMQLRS

[4] = biological target: T2, Cytochrome P450 1A1 (Homo sapiens, UniProt P04798); experiment: Inhibition of recombinant CYP1A1 (unknown origin) assessed as decrease in EROD activity using 7-ethoxyresorufin as substrate incubated for 15 mins by resorufin dye based spectrofluorimetry; assay type: ADME
T2 sequence (P04798 whole entry): T1 sequence (P04798 whole entry)

[5] = biological target: T1, CYP1A1; experiment: Inhibition of recombinant CYP1A1 (unknown origin) assessed as residual enzyme activity using 7-ethoxyresorufin as substrate at 100 uM incubated for 15 mins by resorufin dye based spectrofluorimetry (reference value: 100%); assay type: ADME; conditions: recombinant CYP1A1, probe 7-ethoxyresorufin, read-out: Activity
[6] = tested on: NCI-H226; experiment: Anticancer activity against human NCI-H226 cells assessed as cell growth at 0.1 uM incubated for 48 hrs by SRB assay; assay type: functional; conditions: read-out: Activity
[7] = tested on: NCI-H226; experiment: Anticancer activity against human NCI-H226 cells assessed as cell growth at 100 uM incubated for 48 hrs by SRB assay; assay type: functional; conditions: read-out: Activity
[8] = biological target: T1, CYP1A1; experiment: Inhibition of recombinant CYP1A1 (unknown origin) assessed as residual enzyme activity using 7-ethoxyresorufin as substrate at 1 uM incubated for 15 mins by resorufin dye based spectrofluorimetry (reference value: 100%); assay type: ADME; conditions: recombinant CYP1A1, probe 7-ethoxyresorufin, read-out: Activity
[9] = tested on: MDA-MB-435; experiment: Anticancer activity against human MDA-MB-435 cells assessed as cell growth at 0.1 uM incubated for 48 hrs by SRB assay; assay type: functional; conditions: read-out: Activity
[10] = tested on: MDA-MB-435; experiment: Anticancer activity against human MDA-MB-435 cells assessed as cell growth at 1 uM incubated for 48 hrs by SRB assay; assay type: functional; conditions: read-out: Activity
[11] = tested on: MCF7; experiment: Anticancer activity against human MCF7 cells assessed as cell growth at 10 uM incubated for 48 hrs by SRB assay; assay type: functional; conditions: read-out: Activity
[12] = tested on: MCF7; experiment: Anticancer activity against human MCF7 cells assessed as cell growth at 1 uM incubated for 48 hrs by SRB assay; assay type: functional; conditions: read-out: Activity
[13] = biological target: T1, CYP1A1; experiment: Inhibition of recombinant CYP1A1 (unknown origin) assessed as residual enzyme activity using 7-ethoxyresorufin as substrate at 50 uM incubated for 15 mins by resorufin dye based spectrofluorimetry (reference value: 100%); assay type: ADME; conditions: recombinant CYP1A1, probe 7-ethoxyresorufin, read-out: Activity
[14] = biological target: T1, CYP1A1; experiment: Inhibition of recombinant CYP1A1 (unknown origin) assessed as residual enzyme activity using 7-ethoxyresorufin as substrate at 5 uM incubated for 15 mins by resorufin dye based spectrofluorimetry (reference value: 100%); assay type: ADME; conditions: recombinant CYP1A1, probe 7-ethoxyresorufin, read-out: Activity
[15] = tested on: NCI-H226; experiment: Anticancer activity against human NCI-H226 cells assessed as cell growth at 1 uM incubated for 48 hrs by SRB assay; assay type: functional; conditions: read-out: Activity
[16] = tested on: MDA-MB-468; experiment: Anticancer activity against human MDA-MB-468 cells assessed as cell growth at 10 uM incubated for 48 hrs by SRB assay; assay type: functional; conditions: read-out: Activity
[17] = tested on: MDA-MB-435; experiment: Anticancer activity against human MDA-MB-435 cells assessed as cell growth at 10 uM incubated for 48 hrs by SRB assay; assay type: functional; conditions: read-out: Activity
[18] = tested on: MCF7; experiment: Anticancer activity against human MCF7 cells assessed as inhibition of cell growth incubated for 48 hrs by SRB assay; assay type: functional; conditions: for CC50: read-out: LC50 (the source's name)
[19] = tested on: MDA-MB-468; experiment: Anticancer activity against human MDA-MB-468 cells assessed as cell growth at 1 uM incubated for 48 hrs by SRB assay; assay type: functional; conditions: read-out: Activity
[20] = tested on: NCI-H226; experiment: Anticancer activity against human NCI-H226 cells assessed as cell growth at 10 uM incubated for 48 hrs by SRB assay; assay type: functional; conditions: read-out: Activity
[21] = biological target: T1, CYP1A1; experiment: Inhibition of recombinant CYP1A1 (unknown origin) assessed as residual enzyme activity using 7-ethoxyresorufin as substrate at 0.01 uM incubated for 15 mins by resorufin dye based spectrofluorimetry (reference value: 100%); assay type: ADME; conditions: recombinant CYP1A1, probe 7-ethoxyresorufin, read-out: Activity
[22] = tested on: MDA-MB-435; experiment: Anticancer activity against human MDA-MB-435 cells assessed as inhibition of cell growth incubated for 48 hrs by SRB assay; assay type: functional
[23] = tested on: MDA-MB-468; experiment: Anticancer activity against human MDA-MB-468 cells assessed as inhibition of cell growth incubated for 48 hrs by SRB assay; assay type: functional; conditions: for CC50: read-out: LC50 (the source's name)
[24] = tested on: MDA-MB-468; experiment: Anticancer activity against human MDA-MB-468 cells assessed as cell growth at 0.1 uM incubated for 48 hrs by SRB assay; assay type: functional; conditions: read-out: Activity
[25] = tested on: MCF7; experiment: Anticancer activity against human MCF7 cells assessed as cell growth at 0.1 uM incubated for 48 hrs by SRB assay; assay type: functional; conditions: read-out: Activity
[26] = tested on: MCF7; experiment: Anticancer activity against human MCF7 cells assessed as cell growth at 100 uM incubated for 48 hrs by SRB assay; assay type: functional; conditions: read-out: Activity
[27] = tested on: NCI-H226; experiment: Anticancer activity against human NCI-H226 cells assessed as inhibition of cell growth incubated for 48 hrs by SRB assay; assay type: functional

| Compound | growth at 100 µM [1] | growth at 100 µM [2] | activity at 0.25 h, 0.1 µM [3] | IC50 [4] | activity at 0.25 h, 100 µM [5] | growth at 0.1 µM [6] | growth at 100 µM [7] | activity at 0.25 h, 1 µM [8] | growth at 0.1 µM [9] | growth at 1 µM [10] | growth at 10 µM [11] | growth at 1 µM [12] | activity at 0.25 h, 50 µM [13] | activity at 0.25 h, 5 µM [14] | growth at 1 µM [15] | growth at 10 µM [16] | growth at 10 µM [17] | GI50 [18] | TGI [18] | CC50 [18] | other results |
| --- | --- | --- | --- | --- | --- | --- | --- | --- | --- | --- | --- | --- | --- | --- | --- | --- | --- | --- | --- | --- | --- |
| Cc1sc2[nH]c(CNc3ccc(F)cc3)nc(=O)c2c1C | 83.5% | 56.8% | 85.3% | 0.7 µM | 9.07% | 91.4% | 51.9% | 46% | 99.9% | 97.9% | 84.1% | 94% | 13.5% | 23.9% | 86.9% | 94.4% | 94.6% | 65.8 µM | > 100 µM | > 100 µM | growth at 1 µM [19]: 95%; growth at 10 µM [20]: 77.9%; activity at 0.25 h, 0.01 µM [21]: 91.7%; GI50 [22]: > 100 µM; LC50 [22]: > 100 µM; TGI [22]: > 100 µM; GI50 [23]: > 100 µM; TGI [23]: > 100 µM; CC50 [23]: > 100 µM; growth at 0.1 µM [24]: 99.2%; growth at 0.1 µM [25]: 96.5%; growth at 100 µM [26]: 26.3%; GI50 [27]: > 100 µM; LC50 (concentration killing 50% of cells) [27]: > 100 µM; TGI [27]: > 100 µM |
| Nc1cc(-c2cc3cc(F)ccc3[nH]2)ccc1F | 14.9% | -14.4% | 60.9% | 0.3 µM | 17.5% | 97.7% | 30.2% | 39.8% | 29.5% | 21.5% | 55% | 63.9% | 18.3% | 22.4% | 83.2% | 50% | 17.7% | 69.5 µM | > 100 µM | > 100 µM | growth at 1 µM [19]: 96.4%; growth at 10 µM [20]: 63%; activity at 0.25 h, 0.01 µM [21]: 76.5%; GI50 [22]: < 0.1 µM; LC50 [22]: > 100 µM; TGI [22]: > 100 µM; GI50 [23]: 36.5 µM; TGI [23]: 84.7 µM; CC50 [23]: > 100 µM; growth at 0.1 µM [24]: 100%; growth at 0.1 µM [25]: 68.2%; growth at 100 µM [26]: 44.5%; GI50 [27]: 62.3 µM; LC50 (concentration killing 50% of cells) [27]: > 100 µM; TGI [27]: > 100 µM |
